{"source": "patent US7666887B2", "about": "“Stable, neutral pH, VOC-free biocidal compositions of 1,2-benzisothiazolin-3-one” (ISP Investments, Inc., priority 2004, dated 2010)", "origin": "cited, not measured here", "key": {"[1]": {"conditions": "in some individuals"}}}
{"smiles": "O=c1[nH]sc2ccccc12", "note": "[BIT, 1,2-benzisothiazolin-3-one]", "values": [{"measurement": "aqueous solubility", "value": "low"}, {"measurement": "sensitization", "setting": "[1]", "value": "can cause sensitization"}]}
